# According to ChEMBL document CHEMBL3808380, “Discovery of a novel covalent non-β-lactam inhibitor of the metallo-β-lactamase NDM-1” (Bioorg Med Chem, 2016):
# Calls of active or inactive are those of the source. No cut-off for these calls is given here.
# Tests used:
# [1] = system: Klebsiella pneumoniae; experiment: Binding affinity to Klebsiella pneumoniae 6xHis-tagged metallo-beta-lactamase NDM-1 K224A mutant expressed in Escherichia coli BL21 (DE3)pLysS at 1.5 mM after 3 hrs by ESI-MS analysis
# [2] = biological target: Metallo-beta-lactamase type 2 (Klebsiella pneumoniae) (UniProt C7C422); conditions: 200 uM
# Sequence of Metallo-beta-lactamase type 2 (Klebsiella pneumoniae) (C7C422 whole entry): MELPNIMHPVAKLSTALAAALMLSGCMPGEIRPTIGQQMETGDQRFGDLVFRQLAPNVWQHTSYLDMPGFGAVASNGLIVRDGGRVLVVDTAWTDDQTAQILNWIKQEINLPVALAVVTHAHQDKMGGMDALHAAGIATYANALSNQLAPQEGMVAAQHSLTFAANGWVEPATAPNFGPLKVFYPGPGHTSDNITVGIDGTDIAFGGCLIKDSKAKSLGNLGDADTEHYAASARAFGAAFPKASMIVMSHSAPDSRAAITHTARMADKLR
# [3] = Inhibition of beta-lactamase VIM-2 (unknown origin)
# [4] = biological target: T1, Metallo-beta-lactamase type 2 (Klebsiella pneumoniae, UniProt C7C422); experiment: Time-dependent inhibition of wild type Klebsiella pneumoniae 6xHis-tagged metallo-beta-lactamase NDM-1 expressed in Escherichia coli BL21 (DE3)pLysS
# T1 sequence (C7C422 whole entry): as above
# [5] = system: Klebsiella pneumoniae; experiment: Inhibition of Klebsiella pneumoniae 6xHis-tagged metallo-beta-lactamase NDM-1 K224A mutant expressed in Escherichia coli BL21 (DE3)pLysS assessed as hydrolysis of imipenem up to 750 uM after 20 mins
# [6] = biological target: T1, Metallo-beta-lactamase type 2; experiment: Time-dependent inhibition of wild type Klebsiella pneumoniae 6xHis-tagged metallo-beta-lactamase NDM-1 expressed in Escherichia coli BL21 (DE3)pLysS assessed as inhibition constant for initial non-covalant complex
# [7] = biological target: Metallo-beta-lactamase type 2 (Klebsiella pneumoniae) (UniProt C7C422); conditions: 2 uM
structure (smiles),measurement,setting,value
O=Cc1coc2ccccc2c1=O,Activity,[1],inactive
same,inhibition,[2],tde
same,inhibition,[3],inactive
same,Ki,[4],0.58 µM
same,inhibition,[5],inactive
same,Ki,[6],76 µM
same,inhibition,[7],tde
